Where two headings read alike, the source gives them in different places.
Key:
[1] = Plasma and liver pharmacokinetics following a single oral dose in mice (Example 6); assay type: in vivo; details: CD-1 mice, oral 25 mg/kg, normalized to 1 μmol/kg dose; 1a average of N = 3
Protocol: For each compound, a single oral dose at 25 mg/kg in PEG 200 (dose volume 5 mL/kg) was administered to [CD-1] mice. Untreated animals were used for the collection of control liver. Terminal liver and plasma samples were collected from three animals per time point at 4, 12 and 24 hours post dose and additionally at 1 hour post dose in one occasion of Compound 1 (see Example 5). Liver specimens were collected from all animals immediately after the incision. Freezing forceps stored in liquid nitrogen were used to freeze the liver before excision.
(§1) Plasma samples were analyzed for the prodrug and 2′-methylguanosine (2′-MeG) or relevant nucleoside by LC-MS/MS. For protein precipitation and extraction, each plasma sample (50 μL) was treated with 500 μL of 0.2% formic acid in acetonitrile and 20 μL of an appropriate internal standard working solution. After vortexing and centrifugation, 500 μL of the sample extracts were transferred to a new plate, dried under N2 at ˜28° C. and reconstituted with 75 μL of 0.2% FA in water. The extracts were chromatographed on an Aquasil C18 column using a gradient system of 0.2% formic acid in water and acetonitrile. The analytes were detected and quantified by tandem mass spectrometry in positive ion mode on an MDS Sciex API5000 or an API4000 equipped with a Turbo Ionspray® interface. The calibration range was 0.500 (LLOQ) to 200 ng/mL in mouse plasma. The corresponding range for molar units is 1.68 to 673 pmol/mL.
(§2) Liver samples were analyzed for the active species 2′-methylguanosine triphosphate (2′-MeGTP) or relevant nucleoside triphosphate by LC-MS/MS. The triphosphate levels were assayed by homogenizing (on ice) a known weight of mouse liver with 4× volume of 0.95 M trichloroacetic acid (TCA). Appropriate internal standard solution was added to the homogenate followed by neutralization with 20% ammonium hydroxide solution and addition of 500 μL 1% formic acid. The tissue samples were extracted by weak anion exchange solid phase extraction (SPE). Post extraction, the eluates were evaporated under nitrogen, followed by reconstitution before injection onto the LC-MS/MS system. The samples were chromatographed on a Luna NH2 column using a gradient system of ammonium acetate (1 mM to 20 mM and pH 8.0 to pH 10.0) in water and acetonitrile (70:30). The analyte was detected and quantified by tandem mass spectrometry in positive ion mode on an API4000 equipped with a Turbo Ionspray® interface. The calibration range was 10 to 10000 pmol/mL in mouse liver homogenate (50 to 50000 pmol/g of mouse liver).

[2] = Plasma and liver pharmacokinetics following a single oral dose in monkeys (Example 6); assay type: in vivo; details: cynomolgus monkey; for AUC(0-t) / Cmax / Tmax: Cynomolgus monkeys, single oral dose (mg/kg per Table 6: 1a 10, A 25, B 10, C 10, D 50); for AUC(0-t) / Cmax: normalized to 1 μmol/kg dose; for AUC(0-t): read-out: Plasma prodrug AUC0-24; for Cmax: read-out: Plasma prodrug Cmax; for Tmax: read-out: Plasma prodrug Tmax
Protocol: […] Untreated animals were used for the collection of control liver. Plasma samples were collected at 1, 2, 4, 6, 8, 12 and 24 hours for all compounds and additionally at 0.5 hour (Compounds 1a, B and D), 3 and 10 hours (Compound C), and 32 and 48 hours post dose for Compound A. Terminal liver samples were collected from three animals per time point at 6, 12 and 24 hours post dose for all compounds and additionally at 2 hours (Compounds 1a, B and D), 3 hours (Compound C) and 32 and 48 hours post dose for Compound A. Liver specimens were collected from all animals immediately after the incision. Freezing forceps stored in liquid nitrogen were used to freeze the liver before excision.
as §1, §2

| SMILES | AUC(0-t) ([2]; in vivo) [nM·h] | Cmax ([2]; in vivo) [nM] | Tmax ([2]; in vivo) [min] | other results |
| --- | --- | --- | --- | --- |
| CC(C)(CO)C(=O)SCCOP(=O)(NCc1ccccc1)OCC1OC(n2cnc3c(=O)[nH]c(N)nc32)C(C)(O)C1O (stereo not drawn) [Compound C, 2′-C-methyl-guanosine, 5′-[2-[(3-hydroxy-2,2-dimethyl-1-oxopropyl)thio]ethyl N-(phenylmethyl)phosphoramidate], reference compound] | – | – | – | Nucleoside triphosphate in Liver AUC0-24 [1]: 290 pmol·h/g; Nucleoside triphosphate in Liver Cmax [1]: 19 pmol/g; Plasma prodrug Tmax ([2]; in vivo, po): 360 min |
| COc1nc(N)nc2c1ncn2[C@@H]1O[C@H](COP(=O)(N[C@@H](C)C(=O)OCC(C)(C)C)Oc2cccc3ccccc23)[C@@H](O)[C@@]1(C)O (stereo partly drawn) [Compound B, L-Alanine, N-(2′-C-methyl-6-O-methyl-P-1-naphthalenyl-5′-guanylyl)-, 2,2-dimethylpropyl ester] | 0.2 | 0.2 | 30 | – |
| CC(C)OC(=O)[C@H](C)N[P@](=O)(OC[C@H]1O[C@@H](n2ccc(=O)[nH]c2=O)[C@](C)(F)[C@@H]1O)Oc1ccccc1 [Compound D, L-Alanine, N—((P(S),2′R)-2′-deoxy-2′-fluoro-2′-methyl-P-phenyl-5′-uridylyl)-, 1-methylethyl ester] | 3.5 | 1.2 | 30 | – |
| CCOc1nc(N)nc2c1ncn2[C@@H]1O[C@@H]2COP(=O)(OC(C)C)O[C@H]2[C@@]1(C)F (stereo partly drawn) [Compound A, 6-ethoxy-9-((4aR,6R,7R,7aR)-7-fluoro-2-isopropoxy-7-methyl-2-oxo-tetrahydro-2,5-furo[3,2-d][1,3,2]dioxaphosphinin-6-yl)-9H-purin-2-yl amine] | – | – | – | AUC(0-t) ([2]; plasma): 410 nM·h; Cmax ([2]; plasma): 100 nM; Tmax ([2]; plasma): 120 min |

Reference: patent US8507460B2, “Substituted 3′,5′-cyclic phosphates of purine nucleotide compounds and pharmaceutical compositions for the treatment of viral infections” (priority 2011, dated 2013)
